Measured values from patent US20220411367A1, “ARYLMETHYLENE HETEROCYCLIC COMPOUNDS AS KV1.3 POTASSIUM SHAKER CHANNEL BLOCKERS” (D. E. Shaw Research, LLC, priority 2019, published 2022).

Legend:
hERG channel = biological target: T1, hERG channel (Homo sapiens, UniProt Q12809); assay: hERG electrophysiology, automated whole-cell patch clamp (Patchliner); type: cell-based; conditions: CHO-K1 cells stably expressing hERG; whole cell current inhibition; read-out: hERG IC50
T1 construct: expressed in transfected cells
T1 sequence (Q12809 whole entry): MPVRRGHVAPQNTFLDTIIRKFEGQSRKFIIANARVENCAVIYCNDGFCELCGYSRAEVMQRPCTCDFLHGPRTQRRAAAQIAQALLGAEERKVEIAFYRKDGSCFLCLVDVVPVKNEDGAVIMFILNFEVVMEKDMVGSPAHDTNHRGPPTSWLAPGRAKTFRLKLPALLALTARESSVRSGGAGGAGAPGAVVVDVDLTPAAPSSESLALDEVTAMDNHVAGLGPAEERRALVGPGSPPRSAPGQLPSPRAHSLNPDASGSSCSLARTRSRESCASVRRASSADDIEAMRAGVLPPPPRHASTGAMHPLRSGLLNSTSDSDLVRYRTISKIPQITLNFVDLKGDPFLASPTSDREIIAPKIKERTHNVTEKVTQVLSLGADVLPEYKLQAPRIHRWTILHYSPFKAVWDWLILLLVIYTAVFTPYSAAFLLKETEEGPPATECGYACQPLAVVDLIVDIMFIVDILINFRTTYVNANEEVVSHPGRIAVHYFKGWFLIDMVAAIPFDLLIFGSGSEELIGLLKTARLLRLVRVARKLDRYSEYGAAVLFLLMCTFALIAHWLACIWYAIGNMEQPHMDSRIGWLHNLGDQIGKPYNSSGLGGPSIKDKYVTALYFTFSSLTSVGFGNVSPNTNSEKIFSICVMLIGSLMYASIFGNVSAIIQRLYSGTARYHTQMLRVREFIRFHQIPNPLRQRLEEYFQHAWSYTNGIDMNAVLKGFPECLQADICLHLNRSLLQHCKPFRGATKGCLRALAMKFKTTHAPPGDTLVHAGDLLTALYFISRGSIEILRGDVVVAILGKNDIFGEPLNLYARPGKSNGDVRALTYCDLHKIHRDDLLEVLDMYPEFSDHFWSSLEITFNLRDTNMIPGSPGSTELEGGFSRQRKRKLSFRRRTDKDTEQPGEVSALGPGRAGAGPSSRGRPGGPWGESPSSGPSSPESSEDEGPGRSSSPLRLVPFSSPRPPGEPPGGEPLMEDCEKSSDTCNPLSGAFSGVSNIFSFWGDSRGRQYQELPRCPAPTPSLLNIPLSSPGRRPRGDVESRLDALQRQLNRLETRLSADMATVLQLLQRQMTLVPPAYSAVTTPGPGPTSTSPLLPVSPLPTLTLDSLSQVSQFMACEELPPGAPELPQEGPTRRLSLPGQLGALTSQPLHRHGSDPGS
Description: (§1) All compounds were dissolved in DMSO at 30 mM.
The pulse frequency was 0.3 Hz.
Data were sampled at 10 kHz without filtering.

Kv1.3 potassium channel = biological target: T2, Kv1.3 potassium channel (Homo sapiens, UniProt P22001); assay: Kv1.3 potassium channel blocker activity, automated whole-cell patch clamp (Patchliner); type: cell-based; conditions: CHO-K1 cells stably expressing Kv1.3; whole cell current inhibition; read-out: Kvl.3 IC50
T2 construct: expressed in transfected cells
T2 sequence (P22001 whole entry): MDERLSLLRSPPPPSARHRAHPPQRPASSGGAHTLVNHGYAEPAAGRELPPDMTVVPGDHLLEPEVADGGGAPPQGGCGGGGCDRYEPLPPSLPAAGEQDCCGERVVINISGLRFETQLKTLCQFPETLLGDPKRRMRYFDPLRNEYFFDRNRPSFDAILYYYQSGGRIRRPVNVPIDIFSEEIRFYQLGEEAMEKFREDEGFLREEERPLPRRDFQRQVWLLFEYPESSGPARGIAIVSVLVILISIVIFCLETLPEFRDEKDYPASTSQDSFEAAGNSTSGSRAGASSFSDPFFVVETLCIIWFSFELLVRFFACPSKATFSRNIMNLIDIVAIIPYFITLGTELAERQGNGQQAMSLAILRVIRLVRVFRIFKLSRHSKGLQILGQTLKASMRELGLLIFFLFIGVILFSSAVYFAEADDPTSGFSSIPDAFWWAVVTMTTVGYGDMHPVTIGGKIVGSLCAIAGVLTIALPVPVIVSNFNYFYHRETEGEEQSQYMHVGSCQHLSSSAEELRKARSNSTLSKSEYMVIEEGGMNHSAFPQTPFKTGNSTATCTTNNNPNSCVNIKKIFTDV
Description: This assay is used to evaluate the disclosed compounds' activities as Kv1.3 potassium channel blockers.
CHO-K1 cells stably expressing Kv1.3 were grown in DMEM containing 10% heat-inactivated FBS, 1 mM Sodium Pyruvate, 2 mM L-Glutamine and G418 (500 μg/ml).
as §1
The currents were evoked by applying 100 ms depolarizing pulses from −90 mV (holding potential) to +40 mV were applied with 0.1 Hz frequency. […] 10 second breaks were used between pulse trains (see Table A below).
Data were sampled at 10 kHz without filtering. Passive leak currents were subtracted online using a P/4 procedure (HEKA Elektronik Dr. Schulze GmbH). […] Total compound incubation time before the next pulse train was not longer than 10 seconds. Peak current inhibition was observed during compound equilibration.

Row | SMILES | IC50 (hERG channel) | IC50 (Kv1.3 potassium channel)
1 | NCC1CCN(Cc2cc(Cl)c(Cl)cc2O)CC1 [Compound 61, 2-((4-(aminomethyl)piperidin-1-yl)methyl)-4,5-dichlorophenol] | < 30 µM | < 1 µM
2 | NC(=O)C1CCN(Cc2cc(Cl)c(Cl)cc2O)CC1 [Compound 62, l-(4,5-dichloro-2-hydroxybenzyl) piperidine-4-carboxamide] | < 30 µM | < 10 µM
3 | O=C(C1CCN(Cc2cc(Br)c(Br)cc2O)CC1)N1CCCC1 [Compound 63, (1-(4,5-dibromo-2-hydroxybenzyl)piperidin-4-yl)(pyrrolidin-1-yl)methanone] | < 30 µM | < 1 µM
4 | CC1CCN(Cc2cc(Cl)c(Cl)cc2O)CC1 [Compound 64, 4,5-dichloro-2-((4-methylpiperidin-1-yl)methyl)phenol] | < 30 µM | < 10 µM
5 | OCC1CCN(Cc2cc(Cl)c(Cl)cc2O)CC1 [Compound 65, 4,5-dichloro-2-((4-(hydroxymethyl)piperidin-1-yl)methyl)phenol] | < 30 µM | < 10 µM
6 | CN(C)C(=O)C1CCN(Cc2cc(Cl)c(Cl)cc2O)CC1 [Compound 66, 1-(4,5-dichloro-2-hydroxybenzyl)-N,N-dimethylpiperidine-4-carboxamide] | < 30 µM | < 10 µM
